Results reported in patent US20230172958A1, “USE OF COMPOUNDS FOR TREATING VIRAL INFECTIONS” (priority 2020, published 2023).
Entries after “also recorded” stand apart in the source; their conditions may differ. Read-outs that look alike come from different tables or passages of the source.

Columns and labels:
SARS-CoV-2 [1] = assay: Antiviral screening by qRT-PCR in VeroE6 cells; format: cell-based; conditions: Severe acute respiratory syndrome coronavirus 2, Vero C1008, 10 μM
V-ATPase = V-ATPase ELISA (Human V-Type Proton ATPase ELISA kit) on treated MDAMB231 cells; format: cell-based; conditions: 100 nM (0.1 μM)/10,000 cells, 48 hours
Description: An ELISA test was performed using Human V-Type Proton ATPase ELISA kit (My BioSource Catlog no: MBS911862) to determine the V-ATPase inhibitory effect of the compounds of the present invention.
Procedure: 1.0 million cells of MDAMB231 (cell line rich in V-ATPase) were plated on 60 mm plates for 24 hours at 37° C. and 5% CO2. The cells were treated with the test compounds (Formula A to U) at a concentration of 100 nM (0.1 μM)/10,000 cells and incubated for 48 hours. After incubation the supernatant was discarded, the cells were washed with D.P.B.S. (Dulbecco's phosphate-buffered saline), scraped and stored at −80° C. for 48 hours. The cells were thawed, vortexed, homogenized for 7 minutes, followed by centrifugation for 3 minutes at 3000 R.P.M. The supernatant was taken for V-ATPase Assay.
Standards and samples were pipetted into the wells. Antibody specific for V-ATPase was pre-coated onto a microplate. Any V-ATPase present in the standard /sample would get bound by the immobilized antibody. After the incubation period any unbound substances were removed by washing and a biotin-conjugated antibody specific for V-ATPase was added to the wells and plates were re-incubated at 37° C. and 5% CO2. After washing, avidin conjugated Horseradish Peroxidase (HRP) was added to the wells. Following a wash to remove any unbound avidin-enzyme reagent, a substrate solution was added to the wells and colour developed was in proportion to the amount of V-ATPase bound in the initial step. The colour development was stopped, and the optical density was measured at 450 nm spectrophotometrically. The concentration of V-ATPase was then calculated by substituting the optical density in the regression equation obtained from the standards. Percent (%) reduction in V-ATPase was calculated by subtracting the amount of V-ATPase obtained from the untreated/conc. of V-ATPase in untreated X100.

[2] = Neutral Red toxicity assay, uninfected cultures; format: cell-based; conditions: African green monkey, Vero 76 cells (uninfected monolayers), cell-inhibitory
Description: Confluent or near-confluent cell culture monolayers of Vero 76 cells were prepared in 96-well disposable microplates the day before testing. Cells were maintained in MEM (Minimum Essential Medium Eagle) supplemented with 5% FBS (Fetal Bovine Serum). For antiviral assays the same medium was used but with FBS reduced to 2% and supplemented with 50-μg/ml gentamicin.
Compounds were dissolved in DMSO, saline or the diluent. […] The test compound was prepared at four serial log10 concentrations, usually 0.1, 1.0, 10, and 100 μg/ml or μM. Lower concentrations were used when insufficient compound was supplied. Five microwells were used per dilution: three for infected cultures and two for uninfected toxicity cultures. Controls for the experiment consisted of six microwells that were infected and not treated (virus controls) and six that were untreated and uninfected (cell controls) on every plate. A known active drug was tested in parallel as a positive control drug using the same method as was applied for test compounds. The positive control was tested with every test run.
Growth media was removed from the cells and the test compound was applied in 0.1 ml volume to wells at 2× concentration. Virus, normally at ˜60 CCID50 (50% cell culture infectious dose) in 0.1 ml volume is added to the wells designated for virus infection. Medium devoid of virus was placed in toxicity control wells and cell control wells. […] The plates were then stained with 0.011% neutral red for approximately two hours at 37° C. in a 5% CO2 incubator. The neutral red medium was removed by complete aspiration, and the cells may be rinsed 1× with phosphate buffered solution (PBS) to remove residual dye. The PBS was completely removed, and the incorporated neutral red was eluted with 50% Sorensen's citrate buffer/50% ethanol for at least 30 minutes. Neutral red dye penetrates into living cells, thus, the more intense the red color, the larger the number of viable cells present in the wells. The dye content in each well was quantified using a spectrophotometer at 540 nm wavelength. The dye content in each set of wells was converted to a percentage of dye present in untreated control wells using a Microsoft Excel computer-based spreadsheet and normalized based on the virus control. The 50% effective (EC50, virus-inhibitory) concentrations and 50% cytotoxic (CC50, cell-inhibitory) concentrations are then calculated by regression analysis. The quotient of CC50 divided by EC50 gives the selectivity index (SI) value.

[3] = Pre-clinical GLP and non-GLP toxicity and safety studies; format: in vivo
Description: (§1) Various pre-clinical GLP (Good Laboratory Practice) and non-GLP studies were performed with the compound of Formula E. These included 7-day and 28- days studies on rats and dogs, acute toxicity in rats, mice and dogs. The effect of the compound of Formula E on respiratory function, nervous system and cardiovascular system, bacterial mutation, metabolism, CaCo2 permeability, protein binding and cytochrome effect was also studied.

SARS-CoV-2 [4] = format: in vivo, golden Syrian hamster
SARS-CoV-2 [5] = assay: Neutral Red reduction of virus-induced cytopathic effect (primary CPE assay) in Vero 76 cells; format: cell-based; conditions: Severe acute respiratory syndrome coronavirus 2, virus-inhibitory
Bacterial mutation study = assay: Bacterial mutation study
Description: as §1

For `COC1COC(Oc2ccc(-c3ccc4c(c3)OCO4)c3ccccc23)C(O)C1OC` (centres unmarked) [Compound of Formula E, 2-(1-(benzo[d][1,3]dioxol-5-yl)naphthalen-4-yloxy)-tetrahydro-4,5-dimethoxy-2H-pyran-3-ol], the inhibition at 10 µM (SARS-CoV-2 [1]; 24 hours post infection, E gene, read-out: % inhibition of virus replication 24 hours post infection E) was 75.4%, the inhibition at 10 µM (SARS-CoV-2 [1]; 24 hours post infection, N gene, read-out: % inhibition of virus replication 24 hours post infection N) was 81.3% and the inhibition at 10 µM (SARS-CoV-2 [1]; 48 hours post infection, E gene, read-out: % inhibition of virus replication 48 hours post infection E) was 99.5%. The inhibition at 10 µM (SARS-CoV-2 [1]; 48 hours post infection, N gene, read-out: % inhibition of virus replication 48 hours post infection N) was 99.7%, the “reduction of V-ATPase (%)” value (V-ATPase) was 15.6% and the CC50 [2] was 2.5 µg/mL. For the same compound, the “toxic or adverse effect at higher dose” value ([3]; 2000 mg/kg in rats, mice and dogs) was “did not show any toxic or adverse effect”, the “toxicity in pre-clinical studies” value ([3]; 7-day and 28-days studies on rats and dogs, acute toxicity in rats, mice and dogs) was “non-toxic” and the clastogenicity ([3]; in vivo) was “non-clastogenic”. The “effect on the respiratory, nervous and cardiovascular system” value ([3]; in vivo) was “no effect”, the “IL4 mRNA expression in splenocytes” value (SARS-CoV-2 [4]; across all the groups) was “dramatic inhibition” and the “body mass loss post infection” value (SARS-CoV-2 [4]; hamster, in vivo) was “did not lose weight post infection; also recorded: second best recovery; also recorded: marginal protection”. For the same compound, the “gross lung pneumonitis and inflammation, day 4 post challenge” value (SARS-CoV-2 [4]; hamster, in vivo) was “significantly lesser regions of pneumonitis and inflammation”, the “histological parameters and overall disease score (H&E)” value (SARS-CoV-2 [4]; hamster, in vivo) was “best protection” and the “histological protection (H&E)” value (SARS-CoV-2 [4]; hamster, in vivo) was “little, or no protection”. For the same compound, the “pneumonitis, alveolar epithelial injury and lung inflammation score (H&E)” value (SARS-CoV-2 [4]; hamster, in vivo) was “good reduction”, the “reduction in relative lung viral load (N2 gene)” value (SARS-CoV-2 [4]; hamster, in vivo) was 5 fold and the splenomegaly (SARS-CoV-2 [4]; hamster, in vivo) was “significant mitigation”. For the same compound, the spleen size (SARS-CoV-2 [4]; other drug groups (δI/200, δII/800, δIV/400)) was “little or no reduction”, the “overall protective efficacy against SARS-CoV-2 infection” value (SARS-CoV-2 [4]; pre-treatment with 400 mpk, compared to Remdesivir) was “decreased lung viral load and pneumonitis compared to Remdesivir” and the “IL17A mRNA expression in splenocytes” value (SARS-CoV-2 [4]; δI/200) was “inhibition”. For the same compound, the “INFγ mRNA expression in splenocytes” value (SARS-CoV-2 [4]; δI/200) was “highest induction”, the “IL17A mRNA expression in splenocytes” value (SARS-CoV-2 [4]; δIII/p400) was “inhibition” and the logP (physchem) was about 4. For the same compound, the EC50 (SARS-CoV-2 [5]) was 0.35 µg/mL and the mutagenicity (Bacterial mutation study) was “non-mutagenic”.
